Reference: US20260364184A1, “COMPOUND BASED ON OXOISOINDOLINYL-SUBSTITUTED TETRAHYDROPYRIMIDINE-DIONE AND USE THEREOF” (GLUETACS THERAPEUTICS (SHANGHAI) CO., LTD., priority 2023, published 2026)
Read-outs that look alike come from different tables or passages of the source.

What was measured:
[1] = tested on: Human myeloid monocytic leukemia cell line (MV-4-11); test: Inhibition of MV-4-11 cell proliferation (CellTiter luminescent viability); format: cell-based; conditions: Homo sapiens, MV4-11, 96 hours; for inhibition at 0.01 µM: MV-4-11, 10 nM, read-out: Inhibition Rate at 10 nM (%); for inhibition at 0.5 µM: MV-4-11, 500 nM, read-out: Inhibition Rate at 500 nM (%)
Method in brief: (§1)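 IC50 is fitted from luminescent viability (CellTiter-Meiluncell) curves. Nine-point, 5-fold dilution series (top stock 2000 μM) are added at 0.5 μL per 100 μL medium to cells plated the day before, with growth at 37 °C and 5% CO2.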

[2] = tested on: Human lung cancer cell line (H292); test: Inhibition of H292 cell proliferation (CellTiter luminescent viability); format: cell-based; conditions: 96 hours; for inhibition at 0.01 µM: H292, 10 nM, read-out: Inhibition Rate at 10 nM (%); for inhibition at 0.5 µM: H292, 500 nM, read-out: Inhibition Rate at 500 nM (%)
Protocol: (§2) The tumor cells used herein were cultured in a cell culture medium listed in table 3 at 37 °C in an incubator with 5% CO2. Prior to experimentation, all cell lines used were correctly identified by STR profiling, and tested negative for mycoplasma contamination using a mycoplasma detection kit through routine screenings.
(§3) The IC50 values of the compounds of the present disclosure (including the compounds in Table 1, Table 2, and Examples 1-468) were determined using the CellTiter-Meiluncell Luminescent Cell Viability Assay Kit from Dalian Meilun Biotech Co., Ltd. The detailed procedure is as follows: Tumor cells were seeded in 96-well cell culture plates at the densities specified in Table 4. On the following day, the test compounds of the present disclosure were subjected to serial dilution. The dilution can be performed according to one of the following two methods: • (1) The first dilution method: The test compounds of the present disclosure (including the compounds in Table 1, Table 2, and Examples 1-468) were subjected to 5-fold serial dilutions starting from a highest concentration of 2000 μM, resulting in a total of 9 concentrations from high to low (2000, 400, 80, 16, 3.2, 0.64, 0.128, 0.0256, 0.00512 μM). Subsequently, 0.5 μL of the test compound dilution was transferred into the 96-well plate containing the cells, with each well containing 100 μL of cell culture medium. […] Into the 96-well plate, the diluted test compounds and corresponding detection reagents were added, resulting in final test compound concentrations of 500 nM and 10 nM, respectively. The experimental procedure is described below using the diluted 2 μM test compound as an example.
(§4) 0.5 μL of the aforementioned diluted compound of the present disclosure (including the compounds in Table 1, Table 2, and Examples 1-468) was added to the seeded cells in 100 μL of medium, yielding a final test compound concentration of 10 nM. After the cells were treated with the compounds of the present disclosure for a specified period, the cell viability assay reagent was added to the culture medium according to the kit's instructions to determine cell viability. […] All controls were treated using the same procedure as the compounds of the present disclosure. The growth inhibition curves for the compounds of the present disclosure were plotted using Prism GraphPad software, and the IC50 values were calculated therefrom.

[3] = tested on: Human diffuse large B-cell lymphoma cell line (TMD8); test: Inhibition of TMD8 cell proliferation (CellTiter luminescent viability); format: cell-based; conditions: Homo sapiens, TMD8, 96 h, Table IJ3, Tau inhibitor-based
Protocol: as §2, §3, §4

[4] = molecular target: T1, human Cereblon WT GST-tagged protein (CRBN) (Homo sapiens, UniProt Q96SW2); test: CRBN binding by HTRF (Cereblon binding kit)
T1 construct: purchased CISBIO 64BDCRBNPEH
Protocol: The CEREBLON BINDING kits (specification: 10,000 tests; product number: Catalog #64BDCRBNPEH; CISBIO company) was used to determine the CRBN binding ability of the compounds to be tested through a HTRF method (homogeneous time-resolved fluorescence). The specific methods are as follows: • 1. According to the instructions of the CEREBLON BINDING KITS, serial dilutions were performed for the test compounds of the present disclosure (including the compounds in Table 1, Table 2, and Examples 1-468) and for lenalidomide. Specifically, diluent #9 (1×) solution was used as the diluent, and multiple concentration gradients were set. The dilution operation can be performed according to one of the following two methods: • (1) The first dilution method: The test compounds of the present disclosure (including the compounds in Table 1, Table 2, and Examples 1-468) were subjected to 5-fold serial dilutions starting from a highest concentration of 40 μM, resulting in a total of 7 concentrations from high to low (40, 8, 1.6, 0.32, 0.064, 0.0128, 0.00256 μM). Subsequently, the diluted test compounds and corresponding detection reagents were added to each well of a 96-well plate, resulting in final test compound concentrations of 10, 2, 0.4, 0.08, 0.016, 0.0032, and 0.00064 μM, respectively. • (2) As an alternative, a second dilution method can be used: The test compounds of the present disclosure (including the compounds in Table 1, Table 2, and Examples 1-468) were subjected to 4-fold gradient dilutions starting from a highest concentration of 8 μM, resulting in 2 concentrations (8 μM, 2 μM). Into the 96-well plate, the diluted test compounds and corresponding detection reagents were added, resulting in final test compound concentrations of 2 μM and 0.5 μM, respectively. The experimental procedure is described below using the diluted 8 μM test compound and lenalidomide solutions as examples. • 2. 2.5 μL of the above 8 μM of the tested compounds and lenalidomide solution, as well as the same volume of diluent #9 (1×) solution (solvent control group, Std0) were added to each well of a 96-well plate, respectively. Then, 2.5 μL of human Cereblon WT GST-tagged protein solution was added to each well. Finally, 5 μL of the thoroughly mixed Thalidomide-Re reagent and GST Eu antibody working solution were added to each of the aforementioned wells. The final concentration of the tested compounds and lenalidomide in each well was 2 μM. • 3. The blank control wells were sequentially added with 2.5 μL of diluent #9 (1×) solution, 2.5 μL of PROTAC binding buffer, and 5 μL of thoroughly mixed Thalidomide-Re reagent and GST Eu antibody working solution. • 4. After sealing and incubating the solutions in the aforementioned wells at room temperature for 3 hours, the absorbance values at emission wavelengths of 620 nm and 665 nm were detected by the HTRF method using a Spark microplate reader (V3.1 SP1).
The corresponding CRBN binding inhibition rate was calculated using the following method:
Rcompound=OD 665 nmcompound/OD 620 nmcompound−OD 665 nmcontrol/OD 620 nmcontrol
RStd0=OD 665 nmStd0/OD 620 nmStd0−OD 665 nmcontrol/OD 620 nmcontrol inhibition rate (%)=(1−Rcompound/RStd0)*100
Note: OD 665 nmcompound is the absorbance value of each well of the compounds to be tested of the present disclosure at an emission wavelength of 665 nm. OD 620 nmcompound is the absorbance value of each well of the compounds to be tested of the present disclosure at an emission wavelength of 620 nm. OD 665 nmcontrol is the absorbance value of the blank control well at an emission wavelength of 665 nm. OD 620 nmcontrol is the absorbance value of the blank control well at an emission wavelength of 620 nm. OD 665 nmStd0 is the absorbance value of the solvent control well at an emission wavelength of 665 nm. OD 620 nmStd0 is the absorbance value of the solvent control well at an emission wavelength of 620 nm.

[5] = tested on: Human Multiple myeloma cell line (MM.1S); test: Inhibition of MM.1S cell proliferation (CellTiter luminescent viability); format: cell-based; conditions: Homo sapiens, MM1.S, Table IJ1, Tau inhibitor-based, 96 hours
Method in brief: as §1

[6] = Table IE3, CDK4/6 inhibitor-based
[7] = NCI-H292, Table IE2, CDK4/6 inhibitor-based
[8] = NCI-H292, Table IM1, CDK9 inhibitor-based

T1 sequence (Q96SW2 whole entry): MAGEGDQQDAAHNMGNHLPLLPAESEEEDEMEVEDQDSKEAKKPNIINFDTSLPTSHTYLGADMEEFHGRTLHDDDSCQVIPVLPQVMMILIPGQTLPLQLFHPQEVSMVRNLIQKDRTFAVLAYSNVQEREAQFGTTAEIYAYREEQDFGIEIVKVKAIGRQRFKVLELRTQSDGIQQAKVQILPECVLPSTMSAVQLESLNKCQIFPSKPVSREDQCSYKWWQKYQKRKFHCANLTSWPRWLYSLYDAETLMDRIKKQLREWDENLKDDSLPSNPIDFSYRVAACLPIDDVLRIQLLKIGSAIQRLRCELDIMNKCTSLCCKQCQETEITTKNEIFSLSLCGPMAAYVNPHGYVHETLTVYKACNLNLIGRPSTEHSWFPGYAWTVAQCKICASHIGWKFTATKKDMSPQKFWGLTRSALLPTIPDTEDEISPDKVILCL

Row | SMILES | inhibition at 0.01 µM [1, 6] [%] | inhibition at 0.5 µM [1, 6] [%] | inhibition at 0.01 µM [2, 7] [%] | inhibition at 0.5 µM [2, 7] [%] | inhibition at 0.01 µM [2, 8] [%] | inhibition at 0.5 µM [2, 8] [%] | other results
1 | CN(C)C(=O)c1cc2cnc(Nc3ccc(N4CCN(Cc5ccc6c(c5)CN(N5CCC(=O)NC5=O)C6=O)CC4)cn3)nc2n1C1CCCC1 [GT-06335, 7-cyclopentyl-2-((5-(4-((2-(2,4-dioxotetrahydropyrimidin-1(2H)-yl)-1-oxoisoindolin-5-yl)methyl)piperazin-1-yl)pyridin-2-yl)amino)-N,N-dimethyl-7H-pyrrolo[2,3-d]pyrimidine-6-carboxamide] | 10 to 15 | 40 to 60 | 35 to 40 | 30 to 35 | – | – | –
2 | N#CC1(CNc2cccc(-c3cc(NC4CCN(CC5CCN(c6cccc7c6C(=O)N(N6CCC(=O)NC6=O)C7=O)CC5)CC4)ncc3Cl)n2)CCOCC1 [GT-08349, 4-(((5′-chloro-2′-((1-((1-(2-(2,4-dioxotetrahydropyrimidin-1(2H)-yl)-1,3-dioxoisoindolin-4-yl)piperidin-4-yl)methyl)piperidin-4-yl)amino)-[2,4′-bipyridin]-6-yl)amino)methyl)tetrahydro-2H-pyran-4-carbonitrile] | – | – | – | – | 15 to 20 | 20 to 30 | –
3 | CN(C)C(=O)c1cc2cnc(Nc3ccc(N4CCC(CN5CCN(c6cccc7c6C(=O)N(N6CCC(=O)NC6=O)C7=O)CC5)CC4)cn3)nc2n1C1CCCC1 [GT-05202, 7-cyclopentyl-2-((5-(4-((4-(2-(2,4-dioxotetrahydropyrimidin-1(2H)-yl)-1,3-dioxoisoindolin-4-yl)piperazin-1-yl)methyl)piperidin-1-yl)pyridin-2-yl)amino)-N,N-dimethyl-7H-pyrrolo[2,3-d]pyrimidine-6-carboxamide] | 15 to 20 | 40 to 60 | 35 to 40 | 35 to 40 | – | – | –
4 | Cn1c2ccncc2c2ccc(-c3cnc(N4CCN(Cc5ccc6c(c5)CN(N5CCC(=O)NC5=O)C6=O)CC4)c(C(F)(F)F)c3)cc21 [GT-08539, 1-(5-((4-(5-(5-methyl-5H-pyrido[4,3-b]indol-7-yl)-3-(trifluoromethyl)pyridin-2-yl)piperazin-1-yl)methyl)-1-oxoisoindolin-2-yl)dihydropyrimidine-2,4 (1H,3H)-dione] | – | – | – | – | – | – | inhibition at 0.01 µM ([3]; TMD8, 10 nM, read-out: Inhibition Rate at 10 nM (%)): 20 to 30%; inhibition at 0.5 µM ([3]; TMD8, 500 nM, read-out: Inhibition Rate at 500 nM (%)): 60 to 70%; inhibition at 0.5 µM ([4]; 0.5 μM, read-out: Inhibition Rate at 0.5 μM (%)): 20 to 30%; inhibition at 2 µM ([4]; 2 μM, read-out: Inhibition Rate at 2 μM (%)): 60 to 80%; inhibition at 0.01 µM ([1]; Table IJ2, Tau inhibitor-based): 30 to 40%; inhibition at 0.5 µM ([1]; Table IJ2, Tau inhibitor-based): 50 to 60%; inhibition at 0.01 µM ([5]; 10 nM, read-out: Inhibition Rate at 10 nM (%)): 20 to 30%; inhibition at 0.5 µM ([5]; 500 nM, read-out: Inhibition Rate at 500 nM (%)): 60 to 70%
5 | N#CC1(CNc2cccc(-c3cc(NC4CCN(CC5CCN(c6ccc7c(c6)C(=O)N(N6CCC(=O)NC6=O)C7=O)CC5)CC4)ncc3Cl)n2)CCOCC1 [GT-08348, 4-(((5′-chloro-2′-((1-((1-(2-(2,4-dioxotetrahydropyrimidin-1(2H)-yl)-1,3-dioxoisoindolin-5-yl)piperidin-4-yl)methyl)piperidin-4-yl)amino)-[2,4′-bipyridin]-6-yl)amino)methyl)tetrahydro-2H-pyran-4-carbonitrile] | – | – | – | – | -5 to 0 | 30 to 40 | –
6 | Cn1ncc(-c2nc(NC3CCN(CC4CCN(c5ccc6c(c5)C(=O)N(N5CCC(=O)NC5=O)C6=O)CC4)CC3)ncc2Cl)c1CC1CC1 [GT-08346, 5-(4-((4-((5-chloro-4-(5-(cyclopropylmethyl)-1-methyl-1H-pyrazol-4-yl)pyrimidin-2-yl)amino)piperidin-1-yl)methyl)piperidin-1-yl)-2-(2,4-dioxotetrahydropyrimidin-1(2H)-yl)isoindoline-1,3-dione] | – | – | – | – | 0 to 5 | 50 to 60 | –
7 | CC(=O)c1c(C)c2cnc(Nc3ccc(N4CCC(N5CCN(Cc6ccc7c(c6)C(=O)N(N6CCC(=O)NC6=O)C7=O)CC5)CC4)cn3)nc2n(C2CCCC2)c1=O [GT-06583, 5-((4-(1-(6-((6-acetyl-8-cyclopentyl-5-methyl-7-oxo-7,8-dihydropyrido[2,3-d]pyrimidin-2-yl)amino)pyridin-3-yl)piperidin-4-yl)piperazin-1-yl)methyl)-2-(2,4-dioxotetrahydropyrimidin-1(2H)-yl)isoindoline-1,3-dione] | 40 to 60 | 40 to 60 | 35 to 40 | 40 to 60 | – | – | –
